Laboratory results: PMC10333884, “Large‐scale phosphomimetic screening identifies phospho‐modulated motif‐based protein interactions” (Molecular Systems Biology, 2023)
Residues, ends and D or L forms follow the SMILES beside them. *: point of attachment. FITC = O=C1OC2(c3ccc(O)cc3Oc3cc(O)ccc32)c2ccc(NC(=S)*)cc21

What was measured:
PDCD6IP Alix V domain = target: T1, PDCD6IP Alix V domain (Homo sapiens, UniProt Q8WUM4); experiment: FP saturation experiment, PDCD6IP Alix V domain; details: FP saturation (direct binding), 5 nM FITC-labelled peptide, 50 mM sodium phosphate pH 7.4, room temperature; at least technical triplicates; reference for probe peptide RiboVD, Mihalič et al, to be published; read-out: KD [µM] + SE
T1 construct: GST (cleaved yes); made in house; host or cells: Escherichia coli BL21-Gold(DE3)
T1 sequence (Q8WUM4 360-702): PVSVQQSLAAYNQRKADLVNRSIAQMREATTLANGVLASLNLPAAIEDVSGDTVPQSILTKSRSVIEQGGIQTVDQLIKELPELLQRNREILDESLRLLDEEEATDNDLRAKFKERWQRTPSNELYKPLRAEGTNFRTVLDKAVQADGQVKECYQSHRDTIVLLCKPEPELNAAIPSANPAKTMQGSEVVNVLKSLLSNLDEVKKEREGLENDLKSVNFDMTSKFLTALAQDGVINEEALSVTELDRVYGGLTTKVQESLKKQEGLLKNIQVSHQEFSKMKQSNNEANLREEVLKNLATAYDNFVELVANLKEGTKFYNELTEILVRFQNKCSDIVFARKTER
Method: (§1) FP experiments were performed as described previously (Kliche et al, [2021]). Shortly, in order to monitor the binding event, FITC‐labelled peptides were used (excitation 495 nm, emission: 535 nm) and the FP signal was recorded in mP on a SpectraMax iD5 Multi‐Mode Microplate Reader (Molecular Devices) by measuring the emitted light in two angels. The measurements were performed at room temperature and prepared in nonbinding black half area 96‐well microplates (Corning®; 50 μl/well). For measuring direct binding, that is saturation curves, a 1:1 dilution series of protein domain (25 μl/well) was generated in 50 mM sodium phosphate buffer pH 7.4 and the measurement performed with 5 nM FITC‐labelled peptide (25 μl/well). The buffer‐corrected values were subsequently plotted with PRISM and fitted to the quadratic equation (Gianni et al, [2005]).

RANBP2 RanBD1 4 = target: T2, RANBP2 RanBD1 4 (Homo sapiens, UniProt P49792); experiment: FP saturation experiment, RANBP2 RanBD1 4; details: FP saturation (direct binding), 5 nM FITC-labelled peptide, 50 mM sodium phosphate pH 7.4, room temperature; at least technical triplicates; probe from this study; read-out: KD [µM] + SE
T2 construct: GST (cleaved yes); made in house; host or cells: Escherichia coli BL21-Gold(DE3)
T2 sequence (P49792 2924-3050): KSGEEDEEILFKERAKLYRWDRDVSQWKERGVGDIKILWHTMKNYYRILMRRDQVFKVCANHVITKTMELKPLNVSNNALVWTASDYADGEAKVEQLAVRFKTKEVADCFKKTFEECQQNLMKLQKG
Method: as §1

Kd (RANBP2 RanBD1 4)	SMILES	Kd (PDCD6IP Alix V domain)
	CC(C)C[C@H](NC(=O)[C@H](CO)NC(=O)[C@@H](NC(=O)[C@H](CC(C)C)NC(=O)[C@@H]1CCCN1C(=O)[C@@H]1CCCN1C(=O)[C@H](Cc1ccc(O)cc1)NC(=O)[C@H](CC(C)C)NC(=O)[C@H](CO)NC(=S)Nc1ccc2c(c1)C(=O)OC21c2ccc(O)cc2Oc2cc(O)ccc21)[C@@H](C)O)C(=O)N[C@@H](CCCNC(=N)N)C(=O)O [FITC-HIV1_Gag] ({FITC}-SLYPPLTSLR-OH)	3.6 ± 0.3 µM
22 ± 1 µM	CC(C)C[C@H](NC(=O)[C@H](C)NC(=O)[C@H](CCC(=O)O)NC(=O)[C@H](CCCCN)NC(=S)Nc1ccc2c(c1)C(=O)OC21c2ccc(O)cc2Oc2cc(O)ccc21)C(=O)N[C@@H](C)C(=O)N[C@H](C(=O)N1CCC[C@H]1C(=O)N[C@@H](CC(C)C)C(=O)N1CCC[C@H]1C(=O)N[C@@H](CCCCN)C(N)=O)[C@@H](C)O [FITC-C7orf25] ({FITC}-KEALATPLPK-NH2)	
